The target in assay [1] is T1, Mitogen-activated protein kinase 8 (Homo sapiens, UniProt P45983). The assay is described as follows: Inhibition of JNK1 (unknown origin).
The target of assay [2] is Mitogen-activated protein kinase 8 (Rattus norvegicus) (UniProt P49185). The assay is described as follows: Inhibition of JNK1 phosphorylation in rat RINm5F cells assessed as suppression of albumin-conjugated palmitate-induced IRS-1 Ser307 phosphorylation incubated for 8 hrs. Type of assay: cell-based. The arrangement: concentration or dose not given beside the values. Particulars: concentration not given here.

Assay [3] addresses T1, Mitogen-activated protein kinase 8. The assay is described as follows: Inhibition of JNK1 (unknown origin) expressed in HEK293 cells assessed as anisomycin-induced c-Jun phosphorylation at 10 uM incubated for 30 mins by Western blot analysis relative to anisomycin. The arrangement: scale not given: the % may be the effect or the level left. Type of assay: cell-based.
For assay [4] the target is unchanged. Nature of the assay: Inhibition of JNK1 (unknown origin) expressed in HEK293 cells assessed as anisomycin-induced JNK phosphorylation at 10 uM incubated for 30 mins by Western blot analysis relative to anisomycin. Details: scale not given: the % may be the effect or the level left. It is filed as cell-based.
Assay [5] addresses Mitogen-activated protein kinase 8 (Rattus norvegicus) (UniProt P49185). Nature of the assay: Inhibition of albumin-conjugated palmitate-induced JNK1/2 phosphorylation assessed as JNK phosphorylation level in rat RINm5F cells incubated for 8 hrs. It is filed as cell-based.
The next assay deals with HEK293. Nature of the assay: Cytotoxicity against HEK293 after 24 hrs by CellTiter-Glo luminescent cell viability assay. Particulars: Homo sapiens, HEK293, 24 h. It is filed as cell-based.
Assay [6] addresses T1, Mitogen-activated protein kinase 8. The assay is described as follows: Inhibition of JNK1 (unknown origin) expressed in HEK293 cells assessed as anisomycin-induced IRS-1(Ser307) phosphorylation at 10 uM incubated for 30 mins by Western blot analysis relative to anisomycin. Details: scale not given: the % may be the effect or the level left. Type of assay: cell-based.

Calls of active or inactive are those of the source. The rule behind the calls is not given here.

T1 sequence (P45983 whole entry): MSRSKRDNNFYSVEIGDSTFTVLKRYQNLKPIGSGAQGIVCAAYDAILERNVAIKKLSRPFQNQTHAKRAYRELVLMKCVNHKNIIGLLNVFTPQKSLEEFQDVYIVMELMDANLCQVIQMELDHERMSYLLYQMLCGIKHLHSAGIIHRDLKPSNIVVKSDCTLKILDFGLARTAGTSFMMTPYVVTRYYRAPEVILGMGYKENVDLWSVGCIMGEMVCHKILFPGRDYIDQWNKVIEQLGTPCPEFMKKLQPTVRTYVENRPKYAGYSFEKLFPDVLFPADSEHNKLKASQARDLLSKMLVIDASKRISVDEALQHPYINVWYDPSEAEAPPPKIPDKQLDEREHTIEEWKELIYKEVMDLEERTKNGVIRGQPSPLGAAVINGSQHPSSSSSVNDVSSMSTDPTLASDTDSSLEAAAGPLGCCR
Sequence of Mitogen-activated protein kinase 8 (Rattus norvegicus) (P49185 whole entry): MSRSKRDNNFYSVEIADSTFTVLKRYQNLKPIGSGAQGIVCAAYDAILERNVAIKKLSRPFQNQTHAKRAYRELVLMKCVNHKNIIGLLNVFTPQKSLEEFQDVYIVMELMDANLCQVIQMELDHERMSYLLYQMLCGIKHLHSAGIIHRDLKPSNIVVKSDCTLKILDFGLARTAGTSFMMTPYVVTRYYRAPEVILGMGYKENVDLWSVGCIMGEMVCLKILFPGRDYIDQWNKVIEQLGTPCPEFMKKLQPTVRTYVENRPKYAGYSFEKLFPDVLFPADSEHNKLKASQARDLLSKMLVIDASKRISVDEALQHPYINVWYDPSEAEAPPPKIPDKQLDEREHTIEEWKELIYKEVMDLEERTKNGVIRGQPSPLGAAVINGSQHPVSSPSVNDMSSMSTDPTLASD

Regarding `Cn1c(=O)c(Oc2ccc(F)cc2F)cc2cnc(NC3CCCC3)nc21`, the IC50 is 5.93 µM in assay [1] and more than 30 µM in the assay on HEK293. For the same compound, the inhibition in assay [2] is 61%. For the same compound, the Activity in assay [3] stood at 66.5%; in assay [4], 40%; in assay [6] it was 0%. Also, in assay [5], the inhibition result was “inactive”.
